Reference: patent publication US20250289785A1, “INDOLE DERIVATIVE, METHOD FOR PREPARING SAME, AND USE THEREOF” (MITOIMMUNE THERAPEUTICS INC., priority 2021, published 2025)

How the values were obtained:
H9C2 cells = assay: Cell protection effect against t-BHP in heart cells (LDH release); assay type: cell-based; details: H9C2, t-BHP 40 μM, 2 hours
How it was run: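 H9C2 cardiomyocytes pre-treated 15–20 min with compound (final 0.03–30 μM, 3-fold series), then challenged with 40 μM t-BHP for 2 h. LDH released into supernatant measured colorimetrically (30 min, room temperature, A490); EC50 calculated from protection.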

NIH/3T3 cells = assay: Cell death protective effect in fibroblasts against Erastin, glutamate and RSL3 (LDH); assay type: cell-based, mouse; details: 24 h
Method: (§1) In order to identify the protective effect on fibroblasts, NIH/3T3 cells were divided into 96-well plates by 8×10^3 and cultured for 18 to 24 hours. The compounds of Examples were diluted to final concentrations of 0.1 and 1 μM, treated in each well, and incubated for 15 to 20 minutes. Erastin, glutamate, and RSL3 were treated to have final concentrations of 3 μM, 30 mM, and 3 μM, respectively, and cultured for 24 hours. In order to identify the protective effect of each compound, the degree of LDH extracellular secretion was measured using cytotoxicity LDH assay kit [Dojindo; CK12]. Briefly, at the time when the treatment of the cells with Erastin, glutamate, and RSL3 for 24 hours is completed, the supernatants containing the cells are taken by 70 μL and transferred to a new 96-well plate. The assay buffer included in the kit is added in an amount of 70 μL/well (the same amount as the sample) thereto, and then the plate is wrapped with a foil and the reaction is performed at room temperature for 15 minutes.

PC-12 cells = assay: Cell death protective effect in adrenal cells against Erastin, glutamate and RSL3 (LDH); assay type: cell-based, rat; details: 24 h
Method: as §1, with “on adrenal cells, PC-12” for “on fibroblasts, NIH/3T3”, “by 1×10^4” for “by 8×10^3”, “hours. […]” for “hours. The compounds of Examples were diluted to final concentrations of 0.1 and 1 μM, treated in each well, and incubated for 15 to 20 minutes.”, “of 1” for “of 3”, “μM, 10” for “μM, 30”, “and 0.3” for “and 3”

NRK-49F cells = assay: Cell death protective effect in renal fibroblasts against Erastin, glutamate and RSL3 (LDH); assay type: cell-based, rat; details: 24 h
Method: as §1, with “effect on renal fibroblasts, NRK-49F” for “effect on fibroblasts, NIH/3T3”, “renal fibroblasts, NRK-49F cells were” for “on fibroblasts, NIH/3T3 cells were”, “plates by 1×10^4 and cultured” for “plates by 8×10^3 and cultured”, “0.1 and 1. μM, treated” for “0.1 and 1 μM, treated”, “3 μM, 75 mM, and” for “3 μM, 30 mM, and”

ARPE-19 cells = assay: Cell death protective effect in retinal epithelial cells against Erastin and RSL3 (LDH); assay type: cell-based, human; details: 24 h
Method: In order to identify the protective effect on retinal epithelial cells, ARPE-19 cells were divided into 96-well plates by 1×10^4 and cultured for 18 to 24 hours. The compounds of Examples were diluted to final concentrations of 0.03 and 0.3 μM, treated in each well, and incubated for 20 minutes. Erastin, and RSL3 were treated to have final concentrations of 10 μM, and 0.3 μM, respectively, and cultured for 24 hours. In order to identify the protective effect of each compound, the degree of LDH extracellular secretion was measured using cytotoxicity LDH assay kit [Dojindo; CK12]. Briefly, at the time when the treatment of the cells with Erastin, and RSL3 for 24 hours is completed, the supernatants containing the cells are taken by 70 μL and transferred to a new 96-well plate. The assay buffer included in the kit is added in an amount of 70 μL/well (the same amount as the sample) thereto, and then the plate is wrapped with a foil and the reaction is performed at room temperature for 15 minutes.

[1] = NIH/3T3, Erastin, 3 μM, compound 0.1 μM
[2] = NIH/3T3, Erastin, 3 μM, compound 1.0 μM
[3] = NIH/3T3, Glutamate, 30 mM, compound 0.1 μM
[4] = NIH/3T3, Glutamate, 30 mM, compound 1.0 μM
[5] = NIH/3T3, RSL3, 3 μM, compound 0.1 μM
[6] = NIH/3T3, RSL3, 3 μM, compound 1.0 μM
[7] = PC-12, Erastin, 1 μM, compound 0.1 μM
[8] = PC-12, Erastin, 1 μM, compound 1.0 μM
[9] = PC-12, Glutamate, 10 mM, compound 0.1 μM
[10] = PC-12, Glutamate, 10 mM, compound 1.0 μM
[11] = PC-12, RSL3, 0.3 μM, compound 0.1 μM
[12] = PC-12, RSL3, 0.3 μM, compound 1.0 μM
[13] = Glutamate, 75 mM, compound 0.1 μM
[14] = Glutamate, 75 mM, compound 1.0 μM
[15] = ARPE-19, Erastin, 10 μM, compound 0.03 μM
[16] = ARPE-19, Erastin, 10 μM, compound 0.3 μM
[17] = ARPE-19, RSL3, 0.3 μM, compound 0.03 μM (first RSL3 column)
[18] = ARPE-19, RSL3, 0.3 μM, compound 0.03 μM (second RSL3 column)

SMILES	EC50 (H9C2 cells) [µM]	inhibition (%) (NIH/3T3 cells; [1])	inhibition (%) (NIH/3T3 cells; [2])	inhibition (%) (NIH/3T3 cells; [3])	inhibition (%) (NIH/3T3 cells; [4])	inhibition (%) (NIH/3T3 cells; [5])	inhibition (%) (NIH/3T3 cells; [6])	inhibition (%) (PC-12 cells; [7])	inhibition (%) (PC-12 cells; [8])	inhibition (%) (PC-12 cells; [9])	inhibition (%) (PC-12 cells; [10])	inhibition (%) (PC-12 cells; [11])	inhibition (%) (PC-12 cells; [12])	inhibition (%) (NRK-49F cells; Erastin, 3 μM, compound 0.1 μM)	inhibition (%) (NRK-49F cells; Erastin, 3 μM, compound 1.0 μM)	inhibition (%) (NRK-49F cells; [13])	inhibition (%) (NRK-49F cells; [14])	inhibition (%) (NRK-49F cells; RSL3, 3 μM, compound 0.1 μM)	inhibition (%) (NRK-49F cells; RSL3, 3 μM, compound 1.0 μM)	inhibition (%) (ARPE-19 cells; [15])	also measured
COCCc1cc(NC2CCOCC2)c2[nH]c(-c3ccccc3)cc2c1 [Example 41, 5-(2-methoxyethyl)-2-phenyl-N-(tetrahydro-2H-pyran-4-yl)-1H-indol-7-amine]	≤ 0.3	0	0	99	98	100	100	100	100	76	100	100	100	96	94	100	100	97	97	100	inhibition (%) (ARPE-19 cells; [16]): 100%; inhibition (%) (ARPE-19 cells; [17]): 100%; inhibition (%) (ARPE-19 cells; [18]): 100%
CCOCc1cc(NC2CCOCC2)c2[nH]c(-c3ccccc3)c(-c3ncc[nH]3)c2c1 [Example 46, 5-(ethoxymethyl)-3-(1H-imidazol-2-yl)-2-phenyl-N-(tetrahydro-2H-pyran-4-yl)-1H-indole-7-amine]	> 1	102	99	0	96	0	100	0	38	4	6	0	100	5	64	13	16	0	5	3	inhibition (%) (ARPE-19 cells; [16]): 64%; inhibition (%) (ARPE-19 cells; [17]): 5%; inhibition (%) (ARPE-19 cells; [18]): 43%
